Article PMC7335187, “Super-assembly of ER-phagy receptor Atg40 induces local ER remodeling at contacts with forming autophagosomal membranes” (Nature Communications, 2020)
Where two headings read alike, the source gives them in different places. Where a SMILES comes first, the peptide text is derived from it.

Key:
Assay type in all cases: binding
LC3C WT = LC3C WT (Homo sapiens, UniProt Q9BXW4); test: ITC of peptides with LC3C; details: 25 °C, 0.5 mM peptide in syringe, LC3C WT in cell 10 times lower, single-site model, ± fitting error
Sequence of LC3C WT (Q9BXW4 whole entry): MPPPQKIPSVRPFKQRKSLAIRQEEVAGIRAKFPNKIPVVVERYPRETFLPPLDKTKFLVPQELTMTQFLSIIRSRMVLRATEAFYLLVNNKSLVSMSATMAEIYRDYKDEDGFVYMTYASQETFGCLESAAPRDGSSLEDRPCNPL
Method: (§1) Some of peptides (Supplementary Table 4) and all proteins except Atg40-6His were expressed in E. coli BL21 (DE3). Bacteria were cultured at 37 °C until OD600 became 0.8–1.0 and further cultured at 16 °C with 100 μM IPTG overnight. After centrifugation, the pellets were resuspended with 20 ml PBS with 0.5 mM EDTA and lysed by sonication for 10 min. After centrifugation, the supernatants were incubated with GST-accept resin (Nacalai tesque). After three times wash by PBS, the proteins were eluted with glutathione buffer (10 mM glutathione and 50 mM Tris pH 8.0). The buffer of the eluates was exchanged with PBS by a Bio-Scale Mini BioGel P-6 desalting column (Bio-Rad). After incubation with GST-fused HRV 3 C protease at 4 °C overnight, the samples were subjected to a GST-accept resin column to remove excised GST and the protease. RTN3^245–264-GABARAP was purified by cation-exchange chromatography using CM Sepharose FF column (GE Healthcare) with 500 mM MES pH 6.0 as buffer B and 50 mM MES pH 6.0 and 1 M NaCl as buffer C. The samples were further subjected to size-exclusion chromatography with 20 mM HEPES pH 6.8, 150 mM sodium chloride except for mCherry-Atg8-CC^tetramer (20 mM HEPES pH 6.8, 500 mM sodium chloride) using a Superdex 75 10/300 or Superdex 200 26/60 column. As described in Supplementary Table 4, the Atg40^237–252 M245A and Atg40^237–252 D243A D247A peptides were synthesized by Cosmo Bio, and the FAM134B^453–460 and SEC62^361–368 peptides were synthesized by BEX Co., Ltd. The Atg40^234–252 peptide and its variants were prepared using Liberty Blue peptide synthesizer (CEM Corporation). After dissolving these synthesized peptides in 300 μl water with ~10 μl ammonium hydroxide, they were subjected to size-exclusion chromatography with 20 mM HEPES pH 6.8 containing 150 mM sodium chloride using a Superdex 75 10/300 column.
Peptides used in ITC are listed in Supplementary Table 4. ITC experiments were performed using Microcal iTC200 calorimeter (Malvern Panalytical), with stirring at 1000 rpm at 25 °C. Atg40, FAM134B, SEC62, and RTN3 peptides were prepared as injection samples from the syringe. Concentrations of FAM134B, SEC62, and RTN3 peptides were 0.5 mM, whereas those of Atg40^234–252 and Atg40^237–252 peptides were 2.0 and 1.8 mM, respectively. In total, 200 μl Atg8, LC3A, LC3B, LC3C, GABARAP, GABARAPL1, and GABARAPL2 with 10 times lower concentration than the syringe samples were filled in the cell. As an exception, 1.8 mM Atg8 was filled in the cell when 1.8 mM Atg40^237–252 D243A D247A was in a syringe. The titration involved 18 injections of 2 μl of the syringe sample at intervals of 120 s into a cell after one injection of 0.4 μl of syringe sample. […]

LC3A WT = LC3A WT (Homo sapiens, UniProt Q9H492); test: ITC of peptides with LC3A; details: 25 °C, 0.5 mM peptide in syringe, LC3A WT in cell 10 times lower, single-site model, ± fitting error
Method: as §1
Peptides used in ITC are listed in Supplementary Table 4. ITC experiments were performed using Microcal iTC200 calorimeter (Malvern Panalytical), with stirring at 1000 rpm at 25 °C. […]

GABARAP WT = GABARAP WT (Homo sapiens, UniProt O95166); test: ITC of ER-phagy receptor peptides with GABARAP; details: 25 °C, 0.5 mM peptide in syringe, ± fitting error; for N (site), stoichiometry of binding: GABARAP WT in cell
Sequence of GABARAP WT (O95166 1-116): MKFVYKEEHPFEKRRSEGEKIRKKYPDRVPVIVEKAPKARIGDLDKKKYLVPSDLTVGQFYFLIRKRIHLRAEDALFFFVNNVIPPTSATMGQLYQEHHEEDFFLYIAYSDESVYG
Description: (§2) All plasmids for expression of recombinant proteins and peptides in bacteria were based on a pGEX6P-1 vector (GE Healthcare). Construction of pGEX6P-ScAtg8 (1-116) K26P and pGEX6P-rat LC3B (1-120) was previously described[35],[47]. All mutations were generated by PCR-based mutagenesis. The genes were amplified by PCR and inserted downstream of the HRV 3C protease recognition site by NEBuilder HiFi DNA Assembly Master Mix (New England Biolabs) except for that encoding human GABARAP (1-116), which was inserted using restriction enzymes for the NdeI and BamHI sites. Plasmids for expression of fusion proteins for crystallization were constructed by inserting the genes encoding Atg40^237–252, human FAM134B^450–468, human SEC62^361–376 with the T367D mutation, and human RTN3^245–264 isoform e into upstream of the sequence encoding Atg8 K26P of pGEX6P-Atg8 (the K26P mutation was introduced for stabilizing Atg8) or upstream of the sequence encoding GABARAP of pGEX6P-GABARAP (with the F3S V4T mutations for enhancing crystallization). For phase-separation experiments, the mCherry and BNDL1[25],[26] sequences were inserted into upstream and downstream of the ATG8 gene in pGEX6P-Atg8 K26P, respectively. pGEX-SNAP-40C was constructed by the removal of the HRV 3C protease recognition site and the insertion of the SNAP sequence from pSNAP-tag(T7) vector (New England Biolabs) with a linker (Gly–Gly–Gly–Ser–Gly–Gly–Gly) and Atg40^194–256 following a linker (Ser–Ala–Ser–Ser) to upstream and downstream of GST in pGEX6P-1 vector, respectively. In the construction of plasmids for peptide production, a Tyr residue was attached to their C termini for enabling the quantification by absorbance at 280 nm (Supplementary Table 4).
(§3) Some of peptides (Supplementary Table 4) and all proteins except Atg40-6His were expressed in E. coli BL21 (DE3). Bacteria were cultured at 37 °C until OD600 became 0.8–1.0 and further cultured at 16 °C with 100 μM IPTG overnight. After centrifugation, the pellets were resuspended with 20 ml PBS with 0.5 mM EDTA and lysed by sonication for 10 min. […]

LC3B WT = LC3B WT (Rattus norvegicus, UniProt Q62625); test: ITC of peptides with LC3B; details: 25 °C, 0.5 mM peptide in syringe, LC3B WT in cell 10 times lower, single-site model, ± fitting error
Description: as §2, §3

## CC[C@H](C)[C@H](NC(=O)[C@@H](NC(=O)[C@H](CCC(=O)O)NC(=O)[C@H](Cc1ccccc1)NC(=O)[C@@H]1CCCN1C(=O)[C@H](CO)NC(=O)[C@@H](N)CCC(=O)O)C(C)C)C(=O)N[C@H](C(=O)N[C@@H](CC(=O)O)C(=O)N[C@@H](CCCCN)C(=O)N[C@@H](C)C(=O)N[C@@H](C)C(=O)N[C@@H](Cc1ccccc1)C(=O)N[C@@H](CC(=O)O)C(=O)N[C@@H](CCCCN)C(=O)N[C@@H](CCC(=O)O)C(=O)N[C@@H](Cc1ccccc1)C(=O)N[C@@H](CCCCN)C(=O)N[C@@H](CC(=O)O)C(=O)N[C@@H](CO)C(=O)N[C@@H](Cc1ccc(O)cc1)C(=O)O)[C@@H](C)CC [RTN3245-264 WT] (H-ESPFEVIIDKAAFDKEFKDSY-OH)
LC3C WT
  Kd: not detected

## CC[C@H](C)[C@H](NC(=O)[C@@H](NC(=O)[C@H](CCC(=O)O)NC(=O)[C@H](Cc1ccccc1)NC(=O)[C@@H]1CCCN1C(=O)[C@H](CO)NC(=O)[C@H](CCC(=O)O)NC(=O)[C@@H](N)Cc1ccc(O)cc1)C(C)C)C(=O)N[C@H](C(=O)N[C@@H](CC(=O)O)C(=O)O)[C@@H](C)CC [RTN3245-253 WT (∆helix)] (H-YESPFEVIID-OH)
LC3A WT
  Kd: 21.7 ± 3.62 µM

## CSCC[C@H](NC(=O)[C@H](CCC(=O)O)NC(=O)[C@H](Cc1ccccc1)NC(=O)[C@H](CC(=O)O)NC(=O)[C@H](CC(N)=O)NC(=O)CNC(=O)[C@H](CC(N)=O)NC(=O)CNC(=O)[C@H](CO)NC(=O)[C@H](CO)NC(=O)[C@H](Cc1c[nH]cn1)NC(=O)[C@@H]1CCCN1C(=O)CN)C(=O)N[C@@H](C)C(=O)N[C@H](C(=O)N[C@@H](CCCCN)C(=O)N[C@@H](CCC(=O)O)C(=O)N[C@@H](CCC(=O)O)C(=O)N[C@@H](CC(C)C)C(=O)N[C@@H](CCC(=O)O)C(=O)N[C@@H](CCC(N)=O)C(=O)N[C@@H](CCC(N)=O)C(=O)N[C@H](C(=O)N[C@@H](CC(=O)O)C(=O)N[C@@H](Cc1ccc(O)cc1)C(=O)O)[C@@H](C)O)[C@@H](C)O [SEC62355-376 I366A] (H-GPHSSGNGNDFEMATKEELEQQTDY-OH)
GABARAP WT
  N (site), stoichiometry of binding: 0.87 ± 0.10

## CC[C@H](C)[C@H](NC(=O)[C@H](CCC(N)=O)NC(=O)[C@H](CC(=O)O)NC(=O)[C@H](CC(C)C)NC(=O)[C@H](C)NC(=O)[C@H](CO)NC(=O)[C@H](CCC(N)=O)NC(=O)[C@H](CC(=O)O)NC(=O)[C@H](CC(C)C)NC(=O)[C@H](CC(C)C)NC(=O)[C@H](C)NC(=O)[C@H](Cc1ccccc1)NC(=O)[C@H](CC(=O)O)NC(=O)[C@H](CC(=O)O)NC(=O)CNC(=O)[C@H](CCC(=O)O)NC(=O)[C@H](CCC(=O)O)NC(=O)[C@@H](NC(=O)[C@H](CC(=O)O)NC(=O)[C@@H](NC(=O)[C@H](CC(=O)O)NC(=O)[C@H](CCC(=O)O)NC(=O)[C@H](CCC(=O)O)NC(=O)[C@@H]1CCCN1C(=O)CN)[C@@H](C)O)[C@@H](C)O)C(=O)N[C@@H](CCC(=O)O)C(=O)N[C@@H](CO)C(=O)N[C@@H](CCC(=O)O)C(=O)N[C@@H](CC(C)C)C(=O)N[C@@H](Cc1ccc(O)cc1)C(=O)O [FAM134B^444-470 E456A E462A] (H-GPEEDTDTEEGDDFALLDQSALDQIESELY-OH)
LC3B WT
  Kd: 8.2 ± 2.46 µM

## CC[C@H](C)[C@H](NC(=O)[C@H](CCC(N)=O)NC(=O)[C@H](CC(=O)O)NC(=O)[C@H](CC(C)C)NC(=O)[C@H](CCC(=O)O)NC(=O)[C@H](CO)NC(=O)[C@H](CCC(N)=O)NC(=O)[C@H](CC(=O)O)NC(=O)[C@H](C)NC(=O)[C@H](CC(C)C)NC(=O)[C@H](CCC(=O)O)NC(=O)[C@H](Cc1ccccc1)NC(=O)[C@H](CC(=O)O)NC(=O)[C@H](CC(=O)O)NC(=O)CNC(=O)[C@H](CCC(=O)O)NC(=O)[C@H](CCC(=O)O)NC(=O)[C@@H](NC(=O)[C@H](CC(=O)O)NC(=O)[C@@H](NC(=O)[C@H](CC(=O)O)NC(=O)[C@H](CCC(=O)O)NC(=O)[C@H](CCC(=O)O)NC(=O)[C@@H]1CCCN1C(=O)CN)[C@@H](C)O)[C@@H](C)O)C(=O)N[C@@H](CCC(=O)O)C(=O)N[C@@H](CO)C(=O)N[C@@H](CCC(=O)O)C(=O)N[C@@H](CC(C)C)C(=O)N[C@@H](Cc1ccc(O)cc1)C(=O)O [FAM134B444-470 L458A] (H-GPEEDTDTEEGDDFELADQSELDQIESELY-OH)
GABARAP WT
  N (site), stoichiometry of binding: 0.99 ± 0.03
GABARAP WT; 20 mM HEPES pH 6.8, 150 mM NaCl, GABARAP WT in cell 10 times lower, single-site model
  Kd: 2.06 ± 0.61 µM

## CC[C@H](C)[C@H](NC(=O)[C@H](CCSC)NC(=O)[C@H](CCC(=O)O)NC(=O)[C@H](Cc1ccccc1)NC(=O)[C@H](CC(=O)O)NC(=O)[C@@H](N)CC(N)=O)C(=O)N[C@H](C(=O)N[C@@H](CCCCN)C(=O)N[C@@H](Cc1ccc(O)cc1)C(=O)O)[C@@H](C)O [SEC62^361-368 (Δhelix)] (H-NDFEMITKY-OH)
LC3C WT; read-out: Kd
  Kd: 31.9 ± 13.2 µM
